Broadly, the inhibition is the percentage by which the read-out fell short of the control. The term ED50 denotes the midpoint of the dose-response relation.

Data on four molecules can be found in patent US4075341A, “2-Substituted phenyl-5-triazols [5,1-a] isoquinoline compounds” (Gruppo Lepetit S.p.A., priority 1975, dated 1978).

SMILES strings stand for the structures.

Format in all cases: in vivo
Assay [1] concerns carrageenin induced edema. Briefly: carrageenin test in rats (anti-inflammatory activity). To be noted: Rattus norvegicus, po. From the text: The anti-inflammatory activity of some inventive compounds was evidenced by means of the carrageenin test in rats.
The subject of assay [2] is female Syrian golden hamsters. Briefly: anti-fertility activity in pregnant female Syrian golden hamsters. Further details: key to anti-fertility activity (active according to criteria): active: a reduction of live fetuses in at least 60% of the treated animals and the presence of implantation sites proves the animal to have been pregnant. As to conditions: for anti-fertility activity (active according to criteria): 10 mg./kg. s.c. daily for 5 days, days 4-8 of pregnancy, autopsy day 14; for ED50: Mesocricetus auratus, sc, Table I, 5,6-dihydro compounds, hamsters, read-out: ED50 (dose showing 100% effectiveness in 50% of the treated animals). As for the experimental part: Representative experiments for assessing anti-fertility activity are carried out with female Syrian golden hamsters weighing 100 to 130 g. The animals are mated and the presence of sperm in the vagina is taken as evidence of mating. The day sperm is detected is considered day one of pregnancy, since in our laboratories and those of other investigators 90 to 100% of animals that mate as evidenced by vaginal sperm are pregnant. Pregnancy is later confirmed at the time of autopsy by presence of fetuses or implantation sites in the uterus. Even if an animal aborts the fetus, implantation scars still remain as evidence that the animal had been pregnant. Test compounds dissolved or suspended in sesame oil are administered subcutaneously in doses of 10 mg./kg. daily for 5 days beginning on day 4 of pregnancy (days 4-8). The animals are autopsied on day 14 of pregnancy and the uteri are examined for evidence of pregnancy (implantation sites, fetal resorptions or live fetuses), hemorrage, and evidence of abnormalities of the uterus, placenta or fetuses. A compound is considered to be active if there is a reduction of live fetuses in at least 60% of the treated animals and the presence of implantation sites proves the animal to have been pregnant. […] The compounds are then studied for dose-activity relationship and toxicity or other biological activities. Compounds that show 100% effectiveness (absence of live fetuses in 100% of animals) with minimal side effects or toxicity are studied in depth.
The ED50 values identify the dose levels which show 100% effectiveness (defined as above) in 50% of the treated animals.

Assay [3] relates to female beagle dogs. Briefly: anti-fertility activity in pregnant female beagle dogs. To be noted: Canis lupus familiaris, sc; single subcutaneous dose on 20th day of pregnancy, opened on 35th day; read-out: Minimal effective doses (100% effectiveness, absence of live fetuses in 100% of the animals). The text has this: In performing experiments with dogs, female beagle dogs weighing approximately 10 kg. are mated and on the 20th day of pregnancy the animals are given single subcutaneous doses of the compounds that were active in both the rat and the hamster. On the 35th day of pregnancy, the animals are surgically opened and the uteri are examined for presence of fetuses, placental tissue etc. Following Table III reports the minimal doses of representative compounds showing a 100% effectiveness (absence of live fetuses in 100% of the animals).

In turn, `NC(=O)Nc1nc2n(n1)CCc1ccccc1-2` [Example 54, 2-Ureido-5,6-dihydro-s-triazolo[5,1-a]isoquinoline] had an inhibition at 100 mg/kg in assay [1] (100 mg./kg. p.o.) of around 35%.

Turning to `CCOc1cccc(-c2nc3n(n2)CCc2ccccc2-3)c1` [Example 13, 2-(m-ethoxyphenyl)-5,6-dihydro-s-triazolo[5,1-a]isoquinoline], in assay [2], the “anti-fertility activity (active according to criteria)” value is on record as “active” and the 50% effective dose (ED50) worked out at 0.03 mg/kg. Besides, in assay [3], the minimal effective dose worked out at 6.25 mg/kg.

`Sc1nc2n(n1)CCc1ccccc1-2` [Example 38, 2-Sulfhydryl-5,6-dihydro-s-triazolo[5,1-a]isoquinoline] came in with an inhibition at 50 mg/kg in assay [1] (50 mg./kg. p.o.) of around 35%.

In the case of `C=CCOc1cccc(-c2nc3n(n2)CCc2ccccc2-3)c1` [Example 24, 2-(m-allyloxyphenyl)-5,6-dihydro-s-triazolo[5,1-a]isoquinoline], in assay [2], the “anti-fertility activity (active according to criteria)” value was “active” and the 50% effective dose (ED50) was determined as 0.18 mg/kg. In assay [3], the minimal effective dose came to 6.25 mg/kg.
